The source of these data is article PMC7343746, “(2S, 4R)-4-[^18F]Fluoroglutamine for In vivo PET Imaging of Glioma Xenografts in Mice: an Evaluation of Multiple Pharmacokinetic Models” (Molecular Imaging and Biology, 2020).

In the series the test system is rat BT4C glioma cells. Put plainly: Logan plot (reversible uptake model), subcutaneous model. The format is in vivo, Foxn1^nu/nu mouse. To be noted: for AB distribution volume: arterial blood input; for PC distribution volume: plasma-corrected input; for Logan DV (AB) distribution volume / Logan Ic (AB) y intercept: AB input; for Logan DV (PC) distribution volume / Logan IC (PC) y intercept: PC input. As for the experimental part:
Image analysis was performed using CARIMAS software published and freely distributed by the Turku PET Center (http://turkupetcentre.fi/carimas/). CT scans were used as rough anatomical reference while tumor regions of interest (ROI) were hand-drawn based upon observed spikes of radioactivity in the PET images at locations correlating with recorded tumor grafts. Control muscle ROIs were drawn on the side opposite to the tumor in the leg flank muscle (based on CT) while the blood ROI was drawn based upon heart anatomical location and observed PET image radioactivity spike during the initial 20 s of imaging in the left ventricle. Standardized uptake values (SUV) were calculated with respect to ROI volume, mean and max tumor radioactivity, total injected radioactivity dose (corrected for tail, cannula, and syringe residual radioactivity), and animal weight, and were additionally presented as tumor-to-background ratio (TBR, tumor-to-healthy brain region for intracranial gliomas and tumor-to-muscle for subcutaneous gliomas) as defined by recent glioma research literature standards. Mean and maximum TBR values were reported as ROI radioactivity per volume divided by mean background radioactivity per volume. The blood radioactivity SUV and gender-specific metabolite-corrected blood radioactivity SUV were then applied to multiple pharmacokinetic models to characterize the flux of the tracer (further described in the “Modeling” section).
Using the heart’s left ventricle ROI from the PET data as an uncorrected radioactivity level input and the bioavailable parent-tracer fraction (results: Eqs. 3 and 4 applied to the uncorrected input) as the corrected input, multiple models were investigated to characterize the tissue uptake dynamics. Two-compartment modeling and Logan, Patlak, and Yokoi plots were used to separately model the pharmacokinetics for the gliomas (both subcutaneous and orthotopic loci) and their respective control tissues (healthy muscle and healthy brain, respectively). Where indicated, means plus/minus standard deviations are reported. Difference in parameters for uncorrected versus correct and target tissue versus their respective control regions were tested with students’ paired t tests with P values lower than 0.05 being considered significant.

[1] abbreviates: Bone (femoral condyle) average (n = 6).

`NC(=O)[C@H]([18F])C[C@H](N)C(=O)O` [[^18F]FGln, (2S, 4R)-4-[^18F]fluoroglutamine]: the AB distribution volume by setting is: (Bone (femoral condyle) (n = 6)) 5.11 ± 2.19; (Flank muscle (n = 6)) 0.77 ± 0.13; (Flank tumor (n = 6)) 1.13 ± 0.09; (Neck tumor (n = 6)) 1.21 ± 0.08. For the same molecule, the PC distribution volume by setting is: (Bone (femoral condyle) (n = 6)) 13.47 ± 7.70; (Flank muscle (n = 6)) 1.38 ± 0.23; (Flank tumor (n = 6)) 1.96 ± 0.15; (Neck tumor (n = 6)) 2.08 ± 0.13. In addition, the “Logan DV (AB) distribution volume” value turned out to be 5.11 ± 2.19 under setting [1], 0.77 ± 0.13 (Flank muscle average (n = 6)), 1.13 ± 0.09 (Flank tumor average (n = 6)) and 1.21 ± 0.08 (Neck tumor average (n = 6)). Further, the “Logan Ic (AB) y intercept” value by setting is: under setting [1], -66.36 ± 26.46; (Flank muscle average (n = 6)) -15.28 ± 5.34; (Flank tumor average (n = 6)) -10.31 ± 3.60; (Neck tumor average (n = 6)) -7.63 ± 2.79. Besides, the “Logan DV (PC) distribution volume” value is, setting by setting: under setting [1], 13.47 ± 7.70; (Flank muscle average (n = 6)) 1.38 ± 0.23; (Flank tumor average (n = 6)) 1.96 ± 0.15; (Neck tumor average (n = 6)) 2.08 ± 0.13. For the same molecule, the “Logan IC (PC) y intercept” value runs as follows: under setting [1], -142.79 ± 84.46; (Flank muscle average (n = 6)) -27.58 ± 7.76; (Flank tumor average (n = 6)) -19.79 ± 4.89; (Neck tumor average (n = 6)) -16.47 ± 3.85.
